From patent US20140220036A1, “METHODS FOR TREATING NEURODEGENERATIVE DISEASES AND FOR IDENTIFYING AGENTS USEFUL FOR TREATING NEURODEGENERATIVE DISEASES” (priority 2013, published 2014)

System: h-tau42-dependent transmitter block
Assay: Oral administration of agents to squid, then presynaptic h-tau42 injection and recording of synaptic transmission
Format: in vivo, squid (Loligo paelli)
Details: systemic administration of agent
Procedure: Squid received an oral dose of each agent effective for such inhibiting phosphorylation of the tau protein. At 24 hours after the first dose a second dose was given, and the electrophysiological experiments were performed 1 hour after the second feeding. It was determine that after 24 hours of the double administration, an effective concentration of each agent effective for such inhibiting phosphorylation of the tau protein was measured in the CNS of the gastrically intubated squid (n=10 squid). Synapses from the treated squid were microinjected at the presynaptic axon with h-tau42 (an approximate 80 nM final concentration h-tau42 (n=19), considering a 100× dilution factor. Pre- and post-synaptic potentials were recorded for 90 min.
The squid (Loligo paelli) stellate ganglia isolation from the mantle and the electrophysiological techniques used have been described previously (Llinás, et al., Proc. Natl. Acad. Sci. U.S.A. 1985; 82: 3035-3039). Two glass micropipette electrodes impaled the largest (most distal) presynaptic terminal digit at the synaptic junction site while the post-synaptic axon was impaled by one microelectrode at the junctional site. One of the pre-electrodes was used for pressure microinjection of h-tau42 and also supported voltage clamp current feedback, while the second monitored membrane potential. The total volume injected fluctuated between 0.1 and 1 pl. (Llinás, et al., Proc. Natl. Acad. Sci. U.S.A. 1985; 82: 3035-3039). The exact location of injection and the diffusion and steady-state distribution of the protein/fluorescent dye mix (0.001% dextran fluorescein) were monitored using a fluorescence microscope attached to a Hamamatsu camera system (Middlesex, N.J.). In all experiments a good correlation was observed between the localization of the fluorescence and the electrophysiological findings.
Following presynaptic and post-synaptic axon impalements and the determination of normal synaptic transmission (Llinás, et al., Proc. Natl. Acad. Sci. U.S.A. 1985; 82: 3035-3039; Llinás, et al. Proc. Natl. Acad. Sci. U.S.A. 1994; 91: 12990-12993; Lin, et al., Proc. Natl. Acad. Sci. U.S.A. 1990; 87: 8257-8261), the effect of human tau on synaptic release was evaluated by presynaptic microinjections administered under direct visualization using a fluorescent dye/protein mix, reaching a final concentration after diffusion of approximately 80 nM. (See, Materials and Methods) Presynaptic and post-synaptic potentials were recorded simultaneously under current-clamp configuration. Presynaptic spikes were activated every 5 minutes (low-frequency protocol). With this paradigm, it was determined that 5-10 minutes after an injection of h-tau42, a reduction of transmitter release could be observed. With further time, a total block of transmission resulted, within 30-40 minutes depending on the length of the release zone in the preterminal axon (see, e.g. FIG. 2). […] By contrast, following administration of each agent effective for such inhibiting phosphorylation of the tau protein to the squid (see bellow) h-tau42-dependent transmitter block was prevented (see, generally, Figures).

Row | Compound | h-tau42 induced functional and biochemical abnormalities in the presynaptic axon
1 | Cn1cc(C2=C(c3coc4ccccc34)C(=O)NC2=O)c2cc(Br)ccc21 [ING-135] | prevented or ameliorated
2 | C[S+]([O-])c1ccc(-c2nc(-c3ccncc3)c(-c3ccc(F)cc3)[nH]2)cc1 (centres unmarked) [SB203580] | prevented or ameliorated
3 | Cn1cc(C2=C(c3ccc(Cl)cc3Cl)C(=O)NC2=O)c2ccccc21 [SB216763] | prevented or ameliorated
4 | Cn1cnc(N)c2ncnc1-2 [3-methyladenine] | prevented or ameliorated
5 | O=C1CN(/N=C/c2ccc(-c3ccc([N+](=O)[O-])cc3)o2)C(O)=N1 [Dantrolene] | prevented or ameliorated
6 | [Cl-].[Li+] [LiCl] | prevented or ameliorated
7 | Xitospongin C | prevented or ameliorated

System: fast axonal transport (FAT)
Assay: not given
Details: Kanaan et al. 2011; squid axons; cited from earlier work

Row | Compound | effect on inhibition of axonal transport by PAD peptide
8 | Cn1cc(C2=C(c3coc4ccccc34)C(=O)NC2=O)c2cc(Br)ccc21 [ING-135] | blocked
